Measurements published in patent US20100113437A1, “Active Compound Combinations Having Insecticidal and regular, utility” (BAYER CROPSCIENCE AG, priority 2006, published 2010).

What was measured:
[1] = test system: Spodoptera frugiperda larvae; experiment: Spodoptera frugiperda larvae test (Example F, spray); type: in vivo; settings: single active compound
[2] = test system: Phaedon cochleariae larvae; experiment: Phaedon cochleariae larvae test (Example D, spray); settings: single active compound
[3] = test system: Aphis gossypii; experiment: Aphis gossypii test (Example A, cotton leaves dipped); type: in vivo; settings: single active compound; for Kill in % after 1d: 100 ppm; for Kill in % after 6d: 0.8 ppm
[4] = test system: Myzus persicae; experiment: Myzus persicae test (Example C, cabbage leaves sprayed, DMF); type: in vivo; settings: single active compound
[5] = test system: Spodoptera frugiperda larvae; experiment: Spodoptera frugiperda larvae test (Example G, leaf dip); type: in vivo; settings: single active compound; for Kill in % after 2d: 100 ppm; for Kill in % after 3d: 4 ppm
[6] = test system: Myzus persicae; experiment: Myzus persicae test (Example B, cabbage leaves sprayed, acetone/DMF); type: in vivo; settings: single active compound
[7] = test system: Plutella xylostella; experiment: Plutella xylostella test (Example E, leaf dip); type: in vivo; settings: 0.8 ppm, single active compound
[8] = test system: Tetranychus urticae; experiment: Tetranychus test, OP-resistant/spray treatment (Example H); type: in vivo; settings: single active compound; for Kill in % after 6d: 0.8 g/ha
Protocol: Disks of bean leaves (Phaseolus vulgaris) which are infested by all stages of the greenhouse red spider mite (Tetranychus urticae) are sprayed with an active compound preparation of the desired concentration.
After the desired period of time, the activity in % is determined.

N#Cc1ccc(CC(=NNC(=O)Nc2ccc(OC(F)(F)F)cc2)c2cccc(C(F)(F)F)c2)cc1 (mixture of isomers) [metaflumizone]
Kill in % after 6d ([1]; 20 g/ha): 83% | Kill in % after 6d ([2]; 100 g/ha): 0%

CNC(=O)c1cc(Cl)cc(C)c1NC(=O)c1cc(Br)nn1-c1ncccc1Cl [Rynaxapyr]
Kill in % after 1d [3]: 75% | Kill in % after 1d ([4]; 4 ppm): 35% | Kill in % after 2d ([1]; 0.8 g/ha): 67%

CO[C@H]1CC[C@]2(CC1)NC(=O)C(c1cc(C)ccc1C)=C2O [compound (I)]
Kill in % after 1d [3]: 0% | Kill in % after 1d ([4]; 4 ppm): 0% | Kill in % after 1d ([4]; 20 ppm): 15% | Kill in % after 2d [5]: 0%

CCOC(=O)OC1=C(c2cc(C)ccc2C)C(=O)N[C@]12CC[C@@H](OC)CC2 [compound (II)]
Kill in % after 6d [3]: 0% | Kill in % after 1d ([6]; 20 g/ha): 10% | Kill in % after 1d ([6]; 100 g/ha): 10% | Kill in % after 6d [7]: 10% | Kill in % after 6d ([1]; 0.16 g/ha): 0% | Kill in % after 6d ([1]; 0.8 g/ha): 0% | Kill in % after 2d ([1]; 4 g/ha): 0% | Kill in % after 2d ([1]; 20 g/ha): 0% | Kill in % after 6d ([1]; 20 g/ha): 0% | Kill in % after 3d [5]: 0% | Kill in % after 6d [8]: 50% | Kill in % after 2d ([8]; 20 g/ha): 10% | Kill in % after 2d ([8]; 100 g/ha): 20% | Kill in % after 6d ([2]; 20 g/ha): 17% | Kill in % after 6d ([2]; 100 g/ha): 50%

CCOC(=O)OC1=C(c2cc(C)ccc2C)C(=O)NC12CCC(OC)CC2 (centres unmarked) [compound (IIa)]
Kill in % after 6d [3]: 0% | Kill in % after 1d ([6]; 20 g/ha): 0% | Kill in % after 1d ([6]; 100 g/ha): 0% | Kill in % after 6d [7]: 80% | Kill in % after 6d ([1]; 0.16 g/ha): 0% | Kill in % after 6d ([1]; 0.8 g/ha): 0% | Kill in % after 2d ([1]; 4 g/ha): 0% | Kill in % after 2d ([1]; 20 g/ha): 0% | Kill in % after 6d ([1]; 20 g/ha): 0% | Kill in % after 3d [5]: 0% | Kill in % after 6d [8]: 60% | Kill in % after 2d ([8]; 20 g/ha): 0% | Kill in % after 2d ([8]; 100 g/ha): 10% | Kill in % after 6d ([2]; 20 g/ha): 0% | Kill in % after 6d ([2]; 100 g/ha): 67%

COC1CCC2(CC1)NC(=O)C(c1cc(C)ccc1C)=C2O (centres unmarked) [compound (Ia)]
Kill in % after 1d [3]: 0% | Kill in % after 1d ([4]; 4 ppm): 0% | Kill in % after 1d ([4]; 20 ppm): 10% | Kill in % after 2d [5]: 0%

CC[S+]([O-])c1c(C#N)nn(-c2c(Cl)cc(C(F)(F)F)cc2Cl)c1N (centres unmarked) [ethiprole]
Kill in % after 2d ([8]; 20 g/ha): 20%

N#Cc1nn(-c2c(Cl)cc(C(F)(F)F)cc2Cl)c(N)c1[S+]([O-])C(F)(F)F (centres unmarked) [fipronil]
Kill in % after 1d ([6]; 20 g/ha): 20% | Kill in % after 1d ([4]; 20 ppm): 10% | Kill in % after 6d [8]: 0%

Cc1cc(C(F)(C(F)(F)F)C(F)(F)F)ccc1NC(=O)c1cccc(I)c1C(=O)NC(C)(C)CS(C)(=O)=O [flubendiamide]
Kill in % after 6d ([1]; 0.8 g/ha): 50%

O=C(NC(=O)c1c(F)cccc1F)Nc1ccc(Oc2ccc(C(F)(F)F)cc2Cl)cc1F [flufenoxuron]
Kill in % after 6d ([1]; 0.16 g/ha): 83% | Kill in % after 6d ([2]; 20 g/ha): 50%

O=C(NC(=O)c1c(F)cccc1F)Nc1cc(Cl)c(OC(F)(F)C(F)C(F)(F)F)cc1Cl (centres unmarked) [lufenuron]
Kill in % after 2d ([1]; 20 g/ha): 50% | Kill in % after 2d [5]: 40% | Kill in % after 6d ([2]; 20 g/ha): 83%

O=C(NC(=O)c1ccccc1Cl)Nc1ccc(OC(F)(F)F)cc1 [triflumuron]
Kill in % after 1d ([6]; 100 g/ha): 0% | Kill in % after 2d ([8]; 100 g/ha): 0%

emamectin benzoate
Kill in % after 6d [3]: 15%
